Laboratory results taken from US6613308B2, “Pulmonary delivery in treating disorders of the central nervous system” (Advanced Inhalation Research, Inc., priority 2000, dated 2003).

How the values were obtained:
PZT-induced seizures = test: PZT-induced seizures; assay type: in vivo, rats; details: for Duration of Seizure / Minutes to Seizure Onset: mean
Method: The pharmacodynamic effects of a pulmonary versus oral benzodiazepine-type drug, alprazolam, were evaluated using a standard pre-clinical test of anxiolytic drug action. In this test, the chemical convulsant pentylenetetrazol (PZT), which is known to produce well characterized seizures in rodents, was administered to rats. The test was selected based on its sensitivity to a wide range of benzodiazapines and to the fact that the relative potency of benzodiazapines in blocking PZT-induced seizures is believed to be similar to the magnitude of their anti-anxiety effects in humans. The ability of alprazolam to block PZT-induced seizures was used as a measure of the pharmacodynamic effects of alprazolm.
Determinations of the […] activity of alprazolam were made following oral gavage, or insufflation directly into the lungs of rats. Alprazolam (Sigma, St. Louis, Mo. was administered via aerodynamically light particles which included 10% alprazolam, 20% sodium citrate, 10% calcium chloride and 60% DPPC. For oral delivery, alprazolam was suspended in light corn syrup and administered via gavage. For pulmonary delivery, an insufflation technique was used. Animals were briefly anesthetized with isoflurane (1-2%) and a laryngoscope was used to visualize the epiglottis and the blunt-tip insufflation device (PennCentury Insufflation powder delivery device) was inserted into the airway. A bolus of air (3 cc), from an attached syringe, was used to deliver the pre-loaded powder from the chamber of the device into the animals' lungs. The doses for pulmonary delivery were 0 (blank particles that included 20% sodium citrate, 10% calcium chloride and 70% DPPC), 0.088, 0.175, or 0.35 mgs total alprazolam, and the doses for oral delivery were 0, 0.088, 0.175, 0.35, 0.70, 1.75, or 3.50 mgs total alprazolam. These doses were chosen to encompass the range of effective and ineffective oral doses. Accordingly, any potential benefits of pulmonary delivery could be directly compared to the oral dose response curve for alprazolam.
For both oral and pulmonary delivery, alprazolam was administered either 10 or 30 minutes prior to PZT, obtained from Sigma, St. Louis, Mo., (60 mg/kg given i.p). To control for potential interactions between alprazolam and isoflurane, all animals receiving oral alprazolam also received isoflurane immediately following dosing as described above. For all animals, the number of seizures as well as the time to seizure onset and seizure duration was recorded for 45 minutes after administration of PZT.

[1] = 14C levels in plasma, brain and peripheral organs after 14C-carboplatin IV or pulmonary administration; assay type: in vivo, rat; details: 10 minutes; for Plasma Levels of 14C: 100 μCi/8 mg
Method: Blood, brain and peripheral organ levels of ^14C were determined following administration of ^14C-Carboplatin via either IV or pulmonary administration. A total of 100 μCi of radiolabeled carboplatin was mixed with unlabelled carboplatin to provide a total drug concentration of 8 mg/rat. All animals were anesthetized using ketamine. For IV administration, carboplatin was administered via a previously placed femoral cannula. For pulmonary administration, a 24 gauge catheter was placed within the trachea and the carboplatin was administered using a Harvard ventilator over a 3-5 second period using a tidal volume of 1 ml and 100 strokes/minutes. Blood samples were taken at 10 minutes post drug administration (N=6 per time point for each group). Brains were removed and dissected into various regions including the olfactory, frontal, and occipital cortices, the hippocampus, striatum, and cerebellum. Peripheral organs included the kidneys, spleen, heart, testes, and muscle. All samples were then processed for determinations of ^14C levels using scintillation.
Absolute plasma levels of ^14C were higher following IV administration. […] This point is clearer when the ratio of brain to blood ^14C levels was calculated. […] Absolute levels of ^14C in peripheral tissue was also lower following pulmonary administration (92% lower relative to IV). In contrast to the large differences in selectivity seen in the brain, the relative peripheral selectivity (derived from dividing the levels of radioactivity in peripheral organs by that in the blood) was only 47% higher in the pulmonary group.

[2] = oral, 10 minutes prior to PZT, 0.35 mgs
[3] = oral, 10 minutes prior to PZT, 0.70 mgs
[4] = oral, 10 minutes prior to PZT, 1.75 mgs
[5] = oral, 10 minutes prior to PZT, 3.50 mgs
[6] = oral, 30 minutes prior to PZT, 0.088 mgs
[7] = oral, 30 minutes prior to PZT, 0.175 mgs
[8] = oral, 30 minutes prior to PZT, 0.35 mgs
[9] = pulmonary, 10 minutes prior to PZT, 0.088 mgs
[10] = pulmonary, 10 minutes prior to PZT, 0.175 mgs
[11] = pulmonary, 10 minutes prior to PZT, 0.35 mgs
[12] = pulmonary, 10 minutes prior to PZT, 0.35 mgs, listed as alprazolam
[13] = pulmonary, 30 minutes prior to PZT, 0.088 mgs
[14] = pulmonary, 30 minutes prior to PZT, 0.175 mgs
[15] = pulmonary, 30 minutes prior to PZT, 0.35 mgs

## Cc1nnc2n1-c1ccc(Cl)cc1C(c1ccccc1)=NC2 [Alprazolam, alprazolam]
PZT-induced seizures; 10 minutes prior to PZT, 0.088 vs 3.50 mgs
  pulmonary dose lower than maximally effective oral dose for comparable decrease in seizure duration: ~40 fold
PZT-induced seizures; 10 minutes prior to PZT, 0.35 vs 3.50 mgs
  oral dose relative to pulmonary dose for comparable time to seizure onset: 10 times
PZT-induced seizures; 10 minutes prior to PZT, 3.50 vs 0.35 mgs
  oral dose required relative to pulmonary dose for comparable seizure suppression: approximately 10 times
PZT-induced seizures; oral, 10 minutes prior to PZT
  lowest oral dose that significantly increases time to seizure onset: 1.75 mgs
  maximally effective oral dose on seizure duration: 3.50 mgs
PZT-induced seizures; [2]
  Animals With Seizures: 13/15
  Animals With Seizures (%): (87%)
  Duration of Seizure: 88.0 s
  Minutes to Seizure Onset: 11.49 min
PZT-induced seizures; [3]
  Animals With Seizures: 13/15
  Animals With Seizures (%): (87%)
  Duration of Seizure: 62.07 s
  Minutes to Seizure Onset: 9.24 min
PZT-induced seizures; [4]
  Animals With Seizures: 7/15
  Animals With Seizures (%): (47%)
  Duration of Seizure: 14.47 s
  Minutes to Seizure Onset: 29.03 min
PZT-induced seizures; [5]
  Animals With Seizures: 2/14
  Animals With Seizures (%): (14%)
  Duration of Seizure: 5.40 s
  Minutes to Seizure Onset: 43.37 min
PZT-induced seizures; [6]
  Animals With Seizures: 11/15
  Animals With Seizures (%): (73%)
  Duration of Seizure: 46.0 s
  Minutes to Seizure Onset: 18.38 min
PZT-induced seizures; [7]
  Animals With Seizures: 7/15
  Animals With Seizures (%): (47%)
  Duration of Seizure: 15.0 s
  Minutes to Seizure Onset: 33.10 min
PZT-induced seizures; [8]
  Animals With Seizures: 4/15
  Animals With Seizures (%): (27%)
  Duration of Seizure: 19.0 s
  Minutes to Seizure Onset: 37.58 min
PZT-induced seizures; oral, 30 minutes prior to PZT, 0.35 mgs, listed as alprazolam
  Animals With Seizures (%): 27%
PZT-induced seizures; [9]
  Animals With Seizures: 5/15
  Animals With Seizures (%): (33%)
  Duration of Seizure: 7.0 s
  Minutes to Seizure Onset: 36.71 min
PZT-induced seizures; pulmonary, 10 minutes prior to PZT, 0.088 mgs, listed as alprazolam
  Animals With Seizures (%): 33%
PZT-induced seizures; [10]
  Animals With Seizures: 3/15
  Animals With Seizures (%): (20%)
  Duration of Seizure: 8.0 s
  Minutes to Seizure Onset: 38.61 min
PZT-induced seizures; [11]
  Animals With Seizures: 2/15
  Animals With Seizures (%): (13%)
  Duration of Seizure: 4.0 s
  Minutes to Seizure Onset: 42.28 min
PZT-induced seizures; [12]
  Animals With Seizures (%): 13%
  Minutes to Seizure Onset: > 42 min
PZT-induced seizures; [13]
  Animals With Seizures: 9/15
  Animals With Seizures (%): (60%)
  Duration of Seizure: 82.67 s
  Minutes to Seizure Onset: 18.47 min
PZT-induced seizures; [14]
  Animals With Seizures: 5/15
  Animals With Seizures (%): (33%)
  Duration of Seizure: 16.07 s
  Minutes to Seizure Onset: 34.05 min
PZT-induced seizures; [15]
  Animals With Seizures: 2/15
  Animals With Seizures (%): (13%)
  Duration of Seizure: 2.69 s
  Minutes to Seizure Onset: 41.98 min

## N.N.O=C([O-])C1(C(=O)[O-])CCC1.[Pt+2] [carboplatin]
[1]; IV
  Absolute Brain Levels: 29.47 nCi/gram
  Absolute Tissue Levels (Peripheral Organs), excludes kidney: 0.03
  Relative Brain Selectivity (Brain/Blood): 0.03
  Relative Peripheral Selectivity (Peripheral/Blood), excludes kidney: 0.44
  Plasma Levels of 14C: 994.348
[1]; Lung vs IV
  Absolute Tissue Levels (Peripheral Organs) (% Difference): +2833%
  Plasma Levels (% Difference): −89.72%
[1]; Lung
  Absolute Brain Levels: 27.29 nCi/gram
  Absolute Tissue Levels (Peripheral Organs), excludes kidney: 0.88
  Relative Brain Selectivity (Brain/Blood): 0.88
  Relative Peripheral Selectivity (Peripheral/Blood), excludes kidney: 0.65
  Plasma Levels of 14C: 102.215
[1]; pulmonary vs IV
  Absolute levels of 14C in peripheral tissue, lower relative to IV: 92%
